Measured values published in patent US20090081197A1 (Palatin Technologies, Inc., priority 2007, published 2009).

Tests used:
MC1-R = biological target: T1, MC1-R (Mus musculus, UniProt Q01727); assay: Competitive inhibition assay using [I^125]-NDP-α-MSH, B-16 mouse melanoma cell membranes; format: binding; conditions: for inhibition at 1 µM: 1 μM test compound, read-out: Inhibition at 1 μM (NDP-α-MSH) In Normal System, MC1-R; for Ki: read-out: Ki (nM) (NDP-α-MSH) In Normal System, MC1-R
T1 construct: B-16 mouse melanoma cells (containing MC1-R); endogenous in cells
T1 sequence (Q01727 whole entry): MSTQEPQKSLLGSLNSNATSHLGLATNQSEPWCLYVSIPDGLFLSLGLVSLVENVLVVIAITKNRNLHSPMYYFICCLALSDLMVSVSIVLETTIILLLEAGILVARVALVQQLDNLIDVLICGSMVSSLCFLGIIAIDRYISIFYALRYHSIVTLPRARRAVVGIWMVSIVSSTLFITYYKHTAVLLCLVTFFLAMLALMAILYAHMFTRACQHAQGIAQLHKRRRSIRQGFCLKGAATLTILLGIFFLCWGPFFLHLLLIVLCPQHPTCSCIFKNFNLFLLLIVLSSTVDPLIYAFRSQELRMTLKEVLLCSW
Method: (§1) The ligand concentration used was 0.4 nM for MC3-R and MC5-R, 0.2 nM for MC4-R and 0.1 nM for B16-F10 (MC1-R) membranes. In certain experiments, hMC1-R was also employed.
(§2) The assay mixture was incubated for 90 minutes at room temperature, then filtered and the membranes washed three times with ice cold buffer. The filter was dried and counted in a gamma counter for remaining radioactivity bound to the membranes. […] Each assay was conducted in triplicate and the actual mean values are described, with results less than 0% reported as 0%.

[1] = IP (and IN) food intake, mice; format: in vivo; conditions: mouse, IP, 10 mg/kg, 4 hours; for inhibition in vivo at 10 mg/kg: read-out: maximal decrease in food intake
Method: IV and IP food intake and body weight change. Change in food intake and body weight was evaluated for selected compounds. Male Sprague-Dawley rats or male C57BL/6 mice were utilized. Animals were individually housed in conventional plexiglass hanging cages and maintained on a controlled 12 hour on/off light cycle. Water and powdered (LabDiet, 5P00 Prolab RMH 3000) or pelleted (Harlan Teklad 2018 18% Protein Rodent Diet) food was provided ad libitum. For 1 week before treatment, 24-hour food intake and body weight change was recorded to assess a baseline for the group during vehicle treatment. The rats were dosed IV with vehicle or selected compounds (0.5-3 mg/kg, and in some cases up to 10 mg/Kg) or dosed intraperitoneally (IP) with vehicle or selected compounds (0.5-10 mg/kg, and in some cases up to 50 mg/kg). Mice were dosed IP. […] The changes in body weight and food intake for the 48 hour and 72 hour periods after dosing were also measured to determined reversal of changes in body weight and food intake effects back to baseline levels.

MC3-R = MC3-R (Homo sapiens, UniProt P41968); assay: Competitive inhibition assay using [I^125]-NDP-α-MSH, hMC3-R membranes; format: binding; set-up: expressed in transfected cells; conditions: for inhibition at 1 µM: 1 μM test compound, read-out: Inhibition at 1 μM (NDP-α-MSH) In Normal System, MC3-R; for Ki: read-out: Ki (nM) (NDP-α-MSH) In Normal System, MC3-R
MC3-R, sequence (P41968 whole entry): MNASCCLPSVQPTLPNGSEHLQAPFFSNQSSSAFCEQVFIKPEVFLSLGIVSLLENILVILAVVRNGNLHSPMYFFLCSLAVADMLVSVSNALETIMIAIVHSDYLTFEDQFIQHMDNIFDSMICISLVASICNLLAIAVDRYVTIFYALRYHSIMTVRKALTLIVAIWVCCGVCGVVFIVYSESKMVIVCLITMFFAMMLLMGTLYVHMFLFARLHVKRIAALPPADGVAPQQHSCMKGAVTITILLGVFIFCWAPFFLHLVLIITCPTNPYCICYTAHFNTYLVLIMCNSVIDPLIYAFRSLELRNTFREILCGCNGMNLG
Method: as §1, §2

MC5-R = MC5-R (Homo sapiens, UniProt P33032); assay: Competitive inhibition assay using [I^125]-NDP-α-MSH, hMC5-R membranes; format: binding; set-up: expressed in transfected cells; conditions: for inhibition at 1 µM: 1 μM test compound, read-out: Inhibition at 1 μM (NDP-α-MSH) In Normal System, MC5-R; for Ki: read-out: Ki (nM) (NDP-α-MSH) In Normal System, MC5-R
MC5-R, sequence (P33032 whole entry): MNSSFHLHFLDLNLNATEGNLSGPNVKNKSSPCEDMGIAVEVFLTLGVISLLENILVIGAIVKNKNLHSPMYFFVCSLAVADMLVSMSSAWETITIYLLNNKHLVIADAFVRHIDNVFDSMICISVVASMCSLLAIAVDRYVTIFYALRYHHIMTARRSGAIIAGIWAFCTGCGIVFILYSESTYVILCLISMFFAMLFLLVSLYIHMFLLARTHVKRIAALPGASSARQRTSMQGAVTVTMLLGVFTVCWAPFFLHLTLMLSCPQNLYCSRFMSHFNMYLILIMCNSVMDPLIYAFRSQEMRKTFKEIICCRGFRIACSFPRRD
Method: as §1, §2

MC4-R [2] = biological target: T2, MC4-R (Homo sapiens, UniProt P32245); assay: Competitive inhibition assay using [I^125]-NDP-α-MSH, hMC4-R membranes; format: binding; set-up: host or cells: TREx-293 (HEK-293 stably expressing Tet repressor); conditions: for inhibition at 1 µM: 1 μM test compound, read-out: Inhibition at 1 μM (NDP-α-MSH) In Normal System, MC4-R; for Ki: read-out: Ki (nM) (NDP-α-MSH) In Normal System, MC4-R
T2 sequence (P32245 whole entry): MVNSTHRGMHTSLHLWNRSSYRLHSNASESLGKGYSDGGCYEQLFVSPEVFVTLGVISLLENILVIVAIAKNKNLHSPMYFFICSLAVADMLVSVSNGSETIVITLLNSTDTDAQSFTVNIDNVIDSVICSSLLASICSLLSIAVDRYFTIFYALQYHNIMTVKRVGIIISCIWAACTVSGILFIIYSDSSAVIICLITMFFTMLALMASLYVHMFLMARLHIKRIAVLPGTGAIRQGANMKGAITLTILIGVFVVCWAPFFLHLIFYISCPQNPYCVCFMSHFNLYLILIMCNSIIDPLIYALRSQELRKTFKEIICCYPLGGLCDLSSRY
Method: as §1, §2

MC4-R [3] = biological target: T2, MC4-R; assay: cAMP agonist stimulation, low receptor density system (0.1 ng/mL doxycycline); conditions: 0.1 ng/mL doxycycline, low receptor density hMC4-R system; NDP-α-MSH maximal cAMP = 1.0
MC4-R [4] = biological target: T2, MC4-R; assay: cAMP agonist stimulation, high receptor density system (10 ng/mL doxycycline); conditions: for Efficacy/Intrinsic Activity: NDP-α-MSH maximal cAMP = 1.0
[5] = ICV food intake and body weight change; format: in vivo; conditions: rat, 1 nmol, 24 hours
Method: ICV food intake and body weight change. Change in food intake and body weight was evaluated for selected compounds. Rats with indwelling intracerebroventricular cannulas (ICV rats) were obtained from Hilltop Lab Animals, Inc. (Scottdale, Pa.). Animals were individually housed in conventional plexiglass hanging cages and maintained on a controlled 12 hour on/off light cycle. Water and powdered (LabDiet, 5P00 Prolab RMH 3000) or pelleted (Harlan Teklad 2018 18% Protein Rodent Diet) food was provided ad libitum. For 1 week before treatment, 24-hour food intake and body weight change was recorded to assess a baseline for the group during vehicle treatment. The rats were dosed ICV with vehicle or selected compounds (1-3 nmol). The changes in body weight and food intake for the 24 hour period after dosing were determined. The changes in body weight and food intake for the 48 hour and 72 hour periods after dosing were also measured to determine reversal of changes in body weight and food intake effects back to baseline levels.

MC4-R [6] = biological target: T2, MC4-R; assay: cAMP functional activity assay in HEK-293 cells, normal system; format: cell-based; set-up: expressed in transfected cells; host or cells: HEK-293; conditions: for intrinsic activity at MC4-R in a normal system / EC50: normal receptor density system; for intrinsic activity at MC4-R in a normal system: NDP-α-MSH = 1.0; for functional status at MC4-R in cAMP assay: normal system, 1 μM concentration where stated
Method: General method for EC50 determination in functional activity assay. […] Data analysis and EC50 values were determined using nonlinear regression analysis with Prism Graph-Pad software.
Functional status. The agonist/antagonist status with respect to MC1-R, MC-3R, MC4-R and MC5-R of certain compounds of the invention was determined. Antagonistic activity was determined by measuring the inhibition of α-MSH-induced or NDP-α-MSH-induced cAMP levels following exposure to graded doses of compounds as in the preceding descriptions.
Assay for agonist. Evaluation of the molecules to elicit a functional response in HEK-293 cells expressing MC4-R was accomplished by measuring the accumulation of intracellular cAMP following treatment. Confluent HEK-293 cells expressing MC4-R receptors were detached by enzyme free cell suspension buffer. […] The cells were plated in a 96 well plates at a density of 0.5×10^5 cells per well and pre-incubated for 30 minutes. Test compounds (dissolved in dimethylsulfoxide (DMSO) at a concentration range of 0.05-5000 nM) were added in a total assay volume of 200 μL and cells were incubated for 1 hour at 37° C. The concentration of DMSO was always held at 1% in the assay mixture. NDP-α-MSH was used as the reference agonist. […] Data analysis and EC50 values were determined by using nonlinear regression analysis with Prism Graph-Pad software. […] Compounds with a response ratio of less than 0.1 (10%) were evaluated for antagonistic activity.

[7] = Penile erection induction in male rats; format: in vivo; conditions: rat, IV; for penile erection response: 1 μg/kg
Method: Penile erection induction. The ability of compounds to induce penile erection (PE) in male rats was evaluated with selected compounds. Male Sprague-Dawley rats weighing 200-250 g were kept on a 12 hour on/off light cycle with food and water ad libitum. All behavioral studies were performed between 10 A.M. and 5 P.M. Groups of 4-8 rats were treated with compounds at a variety of doses via intravenous (IV) or intracerebroventricular (ICV) routes. Immediately after treatment, rats were placed into individual polystyrene cages (27 cm long, 16 cm wide, and 25 cm high) for behavioral observation. […] Controls utilized carrier without the test compound. Mean PEs in control groups were 0.17 to 0.5 PEs/rat by IV administration in various experiments and between 1-2 PEs/rat by ICV administration in various experiments, and thus only PEs with statistically relevant increases over the mean PEs in control groups are reported as inducing PEs. A PE response in IV animals greater than the mean PEs in control groups but less than 1.0 PEs/rat, particularly with less than all animals responding, was treated as equivocal, and not necessarily distinguishable from vehicle control. In selected instances, compounds with equivocal results in the IV model were tested for penile response in an ICV model, and compounds without a statistically relevant increase over the mean PEs in ICV control groups were determined to not induce PEs.

[8] = 10 ng/mL doxycycline, high receptor density hMC4-R system

Compound | inhibition at 1 µM (MC1-R) [%] | Ki (MC1-R) [nM] | inhibition at 1 µM (MC3-R) [%] | inhibition at 1 µM (MC5-R) [%] | inhibition at 1 µM (MC4-R [2]) [%] | Efficacy/Intrinsic Activity (MC4-R [3]) | Efficacy/Intrinsic Activity (MC4-R [4]; [8]) | decrease in body weight [5] [%] | decrease in food intake [5] [%] | Ki (MC5-R) [nM] | intrinsic activity at MC4-R in a normal system (MC4-R [6]) | functional status at MC4-R in cAMP assay (MC4-R [6]) | Ki (MC4-R [2]) [nM] | EC50 (MC4-R [4]) [nM] | Penile Erection IV [7] | penile erection response [7] | inhibition in vivo at 10 mg/kg [1] [%] | Ki (MC3-R) [nM] | EC50 (MC4-R [6]) [nM] | also measured
CC(=O)N[C@H](Cc1ccc2ccccc2c1)C(=O)N1C[C@@H](CC(C)C)N(CCc2ccc3ccccc3c2)C[C@@H]1CCCNC(=N)N [Example 12, N-{2-[2(S)-(3-Guanidino-propyl)-5(R)-isobutyl-4-(2-naphthalen-2-yl-ethyl)-piperazin-1-yl]-1(R)-naphthalen-2-ylmethyl-2-oxo-ethyl}-acetamide] | 0 | 4620 | 40 | 64 | 100 | None | None | – | – | – | – | – | – | – | – | – | – | – | – | maximal decrease in food intake [1]: 46%
NCCCC[C@H]1C(=O)N(CCc2ccc3ccccc3c2)CCN1C(=O)[C@@H](Cc1ccc(Cl)cc1Cl)NC(=O)[C@@H]1CC[C@H](c2ccccc2)N1 [Example 18, (2S,5R)-5-phenyl-pyrrolidine-2-carboxylic acid [(R)-2-[(S)-2-(4-amino-butyl)-4-(2-naphthalen-2-yl-ethyl)-3-oxo-piperazin-1-yl]-1-(2,4-dichloro-benzyl)-2-oxo-ethyl]-amide] | 0 | 1370 | 18 | 51 | 92 | None | 0.29 | 2 | 31 | 789 | 0.2 | partial agonist (intrinsic activity between 0.1 (10%) and 0.7 (70%) is classified as a partial agonist) | 50 | 281 | – | – | – | – | – | –
NCCCC[C@H]1C(=O)N(CCc2ccc3ccccc3c2)CCN1C(=O)[C@@H](Cc1ccc(Cl)cc1Cl)NC(=O)c1ccc(Oc2ccccc2)cc1 [Example 21, N—[(R)-2-[(S)-2-(4-Amino-butyl)-4-(2-naphthalen-2-yl-ethyl)-3-oxo-piperazin-1-yl]-1-(2,4-dichloro-benzyl)-2-oxo-ethyl]-4-phenoxy-benzamide] | 35 | – | 51 | 51 | 99 | None | None | 1 | 2 | – | – | no intrinsic activity (intrinsic activity below 0.1 (10%) is classified as inactive or having no intrinsic activity) | – | – | No | no penile erection response | – | – | – | –
CC(=O)N[C@H](Cc1ccc2ccccc2c1)C(=O)N1C[C@@H](C)N(C(=O)Cc2ccc3ccccc3c2)C[C@@H]1CCCNC(=N)N [Example 32, N-{(R)-2-[(2S,5R)-2-(3-guanidino-propyl)-5-methyl-4-(2-naphthalen-2-yl-acetyl)-piperazin-1-yl]-1-naphthalen-2-ylmethyl-2-oxo-ethyl}-acetamide] | 51 | 406 | 38 | 44 | 97 | – | – | – | – | 826 | – | – | 7 | – | – | – | 34 | 634 | 7 | –
C[C@@H]1CN(C(=O)[C@H](N)Cc2ccc3ccccc3c2)[C@@H](CCCNC(=N)N)CN1C(=O)Cc1ccc2ccccc2c1 [Example 33, N-{3-[(2S)-1-[(R)-2-Amino-3-(naphthlene-2-yl)-propionyl]-5(R)-methyl-4-(2-naphthalen-2-yl-acetyl)-piperazin-2-yl]-propyl}-guanidine] | 43 | 227 | 40 | 50 | 89 | – | – | – | – | 548 | – | – | 19 | 50 | – | – | 25 | 596 | 42 | –
(E)-N—[(R)-2-[(S)-2-(4-Amino-butyl)-4-(2-naphthalen-2-yl-ethyl)-3-oxo-piperazin-1-yl]-1-(2,4-dichloro-benzyl)-2-oxo-ethyl]-3-phenyl-acrylamide [Example 20] | – | 502 | – | – | – | None | 0.38 | 3 | 4 | 398 | 0.2 | partial agonist (intrinsic activity between 0.1 (10%) and 0.7 (70%) is classified as a partial agonist) | 6 | – | No | no penile erection response | – | 648 | 112 | EC50 (MC4-R [4]; [8]): 215 nM
